What all share (assay type): in vivo
Assay [1] concerns Amaranthus retoflexus (AMARE). Nature of the assay: Post-emergence biological efficacy, glasshouse pot test. The settings on record: Amaranthus retroflexus, 312 h; Rate 1,000 g/ha; post-emergence spray; evaluated after 13 days (100=total damage to plant; 0=no damage to plant); read-out: Percentage damage caused to weed species, post-emergence, AMARE. Summed up:
(§1)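 Pot-grown weeds were sprayed 8 days after sowing with test compound in acetone/water (50:50) with 0.5% Tween 20 at 1000 or 250 g/ha. Glasshouse at 24/16° C day/night, 14 h light, 65% humidity. Damage scored 0-100 (100 = total damage) after 13 days.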

In assay [2] the test system is Ipomea hederaceae (IPOHE). The description is as above. Particulars: Ipomoea hederacea, 312 h; Rate 1,000 g/ha; post-emergence spray; evaluated after 13 days (100=total damage to plant; 0=no damage to plant); read-out: Percentage damage caused to weed species, post-emergence, IPOHE. Summed up:
as §1

Assay [3] deals with Solanum nigrum (SOLNI). The assay is described as above. Particulars: 312 h, Rate 1,000 g/ha, post-emergence spray, evaluated after 13 days (100=total damage to plant; 0=no damage to plant), read-out: Percentage damage caused to weed species, post-emergence, SOLNI. In a few lines:
as §1

Assay [4] deals with Echinochloa crus-galli (ECHCG). The assay is described as above. Particulars: 312 h, Rate 1,000 g/ha, post-emergence spray, evaluated after 13 days (100=total damage to plant; 0=no damage to plant), read-out: Percentage damage caused to weed species, post-emergence, ECHCG. Summed up:
as §1

The test system of assay [5] is Alopecurus myosuroides (ALOMY). The assay is described as above. Particulars: 312 h, Rate 1,000 g/ha, post-emergence spray, evaluated after 13 days (100=total damage to plant; 0=no damage to plant), read-out: Percentage damage caused to weed species, post-emergence, ALOMY. In a few lines: as §1
Assay [6] relates to Setaria faberi (SETFA). Described as above. Particulars: 312 h, Rate 1,000 g/ha, post-emergence spray, evaluated after 13 days (100=total damage to plant; 0=no damage to plant), read-out: Percentage damage caused to weed species, post-emergence, SETFA. In a few lines:
as §1

Assay [7] concerns Amaranthus retoflexus (AMARE). The assay can be described thus: Pre-emergence biological efficacy, glasshouse pot test. Particulars: Amaranthus retroflexus, 312 h; pre-emergence, rate 1,000 g/ha, evaluated after 13 days (100=total damage to plant; 0=no damage); read-out: Percentage damage caused to weed species, AMARE. In a few lines:
(§2)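 Damage rated 0–100 (100 = total kill) 13 days post-spray. Pots of standard soil were sown and sprayed after one day with test compound at 1000 or 250 g/ha in acetone/water (50:50) plus 0.5% Tween 20.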

Assay [8] has as its system Ipomea hederaceae (IPOHE). The assay is described as above. The settings on record: Ipomoea hederacea, 312 h; pre-emergence, rate 1,000 g/ha, evaluated after 13 days (100=total damage to plant; 0=no damage); read-out: Percentage damage caused to weed species, IPOHE. Summed up:
as §2

The subject of assay [9] is Solanum nigrum (SOLNI). The description is as above. Particulars: 312 h, pre-emergence, rate 1,000 g/ha, evaluated after 13 days (100=total damage to plant; 0=no damage), read-out: Percentage damage caused to weed species, SOLNI. Summed up: as §2
The subject of assay [10] is Echinochloa crus-galli (ECHCG). The description is as above. The settings on record: 312 h, pre-emergence, rate 1,000 g/ha, evaluated after 13 days (100=total damage to plant; 0=no damage), read-out: Percentage damage caused to weed species, ECHCG. Summed up: as §2
Assay [11] concerns Alopecurus myosuroides (ALOMY). Described as above. Particulars: 312 h, pre-emergence, rate 1,000 g/ha, evaluated after 13 days (100=total damage to plant; 0=no damage), read-out: Percentage damage caused to weed species, ALOMY. Summed up: as §2
Assay [12] has as its system Setaria faberi (SETFA). The description is as above. Particulars: 312 h, pre-emergence, rate 1,000 g/ha, evaluated after 13 days (100=total damage to plant; 0=no damage), read-out: Percentage damage caused to weed species, SETFA. In a few lines:
as §2

With `COC(=O)c1nc(C2CC2)nc(N(C)Cc2ccc(F)cc2)c1Cl` [Compound 5-66, 5-Chloro-2-cyclopropyl-4-[N-(4-fluorophenylmethyl)-N-methyl-amino]-6-methoxy-carbonylpyrimidine], the pest or weed control at 1000 g/ha in [1] was determined as 100%; in assay [2], 100%; in the assay on Solanum nigrum (SOLNI) [3], 90%; in [4], 40%; in assay [5], 20%; with Setaria faberi (SETFA) [6], 80%. For the same molecule, the pest or weed control at 1000 g/ha came to 100% in assay [7]; 70% in [8]; 60% in the assay with Solanum nigrum (SOLNI) [9]; 40% in assay [10]; 30% in assay [11]; 60% in the assay with Setaria faberi (SETFA) [12].

For `COC(=O)c1nc(C2CC2)nc(N(C)Cc2ccc(Br)cc2)c1Cl` [Compound 5-69, 4-[N-(4-Bromo-phenylmethyl)-N-methyl-amino]-5-chloro-2-cyclo-propyl-6-methoxy-carbonylpyrimidine], the pest or weed control at 1000 g/ha in assay [1] came out at 100%; in [2], 80%; with Solanum nigrum (SOLNI) [3], 80%; in assay [4], 50%; in assay [5] it was 30%; in the assay on Setaria faberi (SETFA) [6] it was 70%. For the same molecule, the pest or weed control at 1000 g/ha in assay [7] came to 70%; in assay [8], 50%; with Solanum nigrum (SOLNI) [9] it was 20%; in assay [10], 10%; in assay [11] it was 10%; in the assay on Setaria faberi (SETFA) [12], 0%.

As to `COC(=O)c1nc(C2CC2)nc(N(C)Cc2ccc(C)cc2)c1Cl` [Compound 5-73, 5-Chloro-2-cyclopropyl-6-methoxycarbonyl-4-[N-methyl-N-(4-methylphenyl)-methylamino]-pyrimidine], the pest or weed control at 1000 g/ha in assay [1] was 100%; in [2], 100%; in the assay on Solanum nigrum (SOLNI) [3], 70%; in assay [4] it was 10%; in assay [5] it was 10%; in the assay on Setaria faberi (SETFA) [6], 50%. The pest or weed control at 1000 g/ha came to 80% in assay [7]; 30% in assay [8]; 20% in the assay with Solanum nigrum (SOLNI) [9]; 0% in assay [10]; 0% in assay [11]; 0% with Setaria faberi (SETFA) [12].

Turning to `COC(=O)c1nc(C2CC2)nc(N(C)Cc2cccc(C(F)(F)F)c2)c1Cl` [Compound 5-76, 5-Chloro-2-cyclopropyl-6-methoxycarbonyl-4-[N-methyl-N-(3-trifluoromethyl-phenylmethyl)-amino]pyrimidine], the pest or weed control at 1000 g/ha in assay [1] worked out at 100%; in assay [2] it was 90%; in the assay on Solanum nigrum (SOLNI) [3], 90%; in assay [4] it was 50%; in assay [5], 40%; in the assay on Setaria faberi (SETFA) [6] it was 80%. For the same molecule, the pest or weed control at 1000 g/ha in assay [7] came to 80%; in assay [8], 60%; with Solanum nigrum (SOLNI) [9] it was 40%; in assay [10], 20%; in [11], 10%; with Setaria faberi (SETFA) [12], 30%.

The record behind these values is patent US20110086759A1, “CHEMICAL COMPOUNDS” (SYNGENTA CROP PROTECTION, INC., priority 2007, published 2011).
